The values that follow come from patent publication US9433621B2, “Substituted pyridine and pyrimidine derivatives and their use in treating viral infections” (Merck Sharp & Dohme Corp., priority 2010, dated 2016).

Each structure is given as a SMILES string. Read-outs that look alike come from different tables or passages of the source.

The experiment concerns HCV replicon. Put plainly: Cell-Based HCV Replicon Assay. The conditions noted are these: read-out: EC90. An outline of the steps:
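Replicon cells, 5000/well, treated 3 days with 10 serial 2-fold dilutions (top 25 μM to 1 μM) in 0.5% DMSO, 10% FBS. Replicon RNA measured by multiplex Taqman RT-PCR (NS5B amplicon, GAPDH control); EC50/EC90 = concentration giving ΔCT of 1/3.2 over baseline from sigmoid fit.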

[1] abbreviates: Hepatitis C virus, HCV Replicon assay, EC90 range, Table VI.

For orientation: EC90 means the point of the concentration-response curve where the effect stands at 90%. In the case of `COC(C)(C)[C@H]1C[C@@H](Nc2nc(N)nc(C)c2-c2nc3c(C)nccc3s2)[C@H](O)[C@@H]1O` [Example 5279], under setting [1], the EC90 is < 500 nM.

With `Cc1nc(NCCSc2ccccc2)nc(N[C@@H]2C[C@H](C(C)(C)O)[C@@H](O)[C@H]2O)c1-c1nc2c(C)nccc2s1` [Example 5280], under setting [1], the EC90 is < 500 nM.

Take `Cc1nc(NCCS(N)(=O)=O)nc(N[C@@H]2C[C@H](C(C)(C)O)[C@@H](O)[C@H]2O)c1-c1nc2c(C)nccc2s1` [Example 5281]: the EC90 under setting [1] was 500 to 5000 nM.

For `Cc1nc(NCC2(N(C)C)CCOCC2)nc(N[C@@H]2C[C@H](C(C)(C)O)[C@@H](O)[C@H]2O)c1-c1nc2c(C)nccc2s1` [Example 5282], the EC90 (Hepatitis C virus, HCV Replicon assay, EC90 given as numeric bound, Table VI) was > 1000 nM.

With `COC[C@@H](C)Nc1nc(C)c(-c2nc3c(C)nccc3s2)c(N[C@@H]2C[C@H](C(C)C)[C@@H](O)[C@H]2O)n1` [Example 5283], under setting [1], the concentration for an effect of 90% (EC90) is < 500 nM.

With `Cc1nc(NCC2CC2)nc(N[C@@H]2C[C@H](C(C)C)[C@@H](O)[C@H]2O)c1-c1nc2c(C)nccc2s1` [Example 5284], the EC90 under setting [1] was < 500 nM.

`Cc1nc(NC2CC2)nc(N[C@@H]2C[C@H](C(C)C)[C@@H](O)[C@H]2O)c1-c1nc2c(C)nccc2s1` [Example 5285]: the EC90 under setting [1] was < 500 nM.

In the case of `Cc1nc(N)nc(N[C@@H]2C[C@H](C(C)C)[C@@H](O)[C@H]2O)c1-c1nc2c(C)nccc2s1` [Example 5286], the EC90 under setting [1] is < 500 nM.

For the compound `COCCC1(CNc2nc(C)c(-c3nc4c(C)nccc4s3)c(N[C@@H]3C[C@H](C(C)(C)O)[C@@H](O)[C@H]3O)n2)CCOCC1` [Example 5287], under setting [1], the EC90 is < 500 nM.

As to `Cc1nc(NCCS(=O)(=O)N(C)C)nc(N[C@@H]2C[C@H](C(C)(C)O)[C@@H](O)[C@H]2O)c1-c1nc2c(C)nccc2s1` [Example 5288], the EC90 under setting [1] is < 500 nM.

As to `Cc1nc(NCCS(=O)(=O)NC(C)(C)C)nc(N[C@@H]2C[C@H](C(C)(C)O)[C@@H](O)[C@H]2O)c1-c1nc2c(C)nccc2s1` [Example 5289], the EC90 under setting [1] is < 500 nM.

`Cc1nc(NCC2CC2)nc(N[C@@H]2C[C@H](Cc3nccs3)[C@@H](O)[C@H]2O)c1-c1nc2cnccc2s1` [Example 5290]: under setting [1], the EC90 is < 500 nM.

Turning to `Cc1nc(NC(C)C2CC(F)(F)C2)nc(N[C@@H]2C[C@H](CO)[C@@H](O)[C@H]2O)c1-c1nc2c(C)nccc2s1` (some centres unmarked) [Example 5291], under setting [1], the EC90 was < 500 nM.

Consider `CO[C@H]1C[C@@H](CNc2nc(C)c(-c3nc4c(C5CC5)nccc4s3)c(N[C@@H]3C[C@H](CO)[C@@H](O)[C@H]3O)n2)C1` [Example 5292], for which the EC90 under setting [1] was < 500 nM.

As for `CCO[C@H]1C[C@@H](CNc2nc(C)c(-c3nc4c(C5CC5)nccc4s3)c(N[C@@H]3C[C@H](CO)[C@@H](O)[C@H]3O)n2)C1` [Example 5293], the EC90 under setting [1] was < 500 nM.

Take `Cc1nc(NCC2CC(C)C2)nc(N[C@@H]2C[C@H](CO)[C@@H](O)[C@H]2O)c1-c1nc2c(C3CC3)nccc2s1` (some centres unmarked) [Example 5294]: the EC90 under setting [1] is < 500 nM.

Regarding `Cc1nc(NCC2CC2)nc(N[C@@H]2C[C@H](c3nccs3)[C@@H](O)[C@H]2O)c1-c1nc2c(C)nccc2s1` [Example 5295], the EC90 under setting [1] was < 500 nM.

For the compound `CO[C@H]1C[C@H](CNc2nc(C)c(-c3nc4c(C5CC5)nccc4s3)c(N[C@@H]3C[C@H](CO)[C@@H](O)[C@H]3O)n2)C1` [Example 5296], the EC90 under setting [1] is < 500 nM.

Regarding `Cc1nc(NCC2CC(F)(F)C2)nc(N[C@@H]2C[C@H](CO)C(O)[C@H]2O)c1-c1nc2c(C3CC3)nccc2s1` (some centres unmarked) [Example 5297], the EC90 under setting [1] is < 500 nM.

For `CCO[C@H]1C[C@H](CNc2nc(C)c(-c3nc4c(C5CC5)nccc4s3)c(N[C@@H]3C[C@H](CO)[C@@H](O)[C@H]3O)n2)C1` [Example 5298], the EC90 under setting [1] was < 500 nM.

In the case of `CO[C@H]1C[C@@H]([C@@H](C)Nc2nc(C)c(-c3nc4c(C5CC5)nccc4s3)c(N[C@@H]3C[C@H](CO)[C@@H](O)[C@H]3O)n2)C1` [Example 5299], under setting [1], the EC90 is < 500 nM.

With `Cc1nc(NC(C)C2CC(F)(F)C2)nc(N[C@@H]2C[C@H](CO)C(O)[C@H]2O)c1-c1nc2c(C3CC3)nccc2s1` (some centres unmarked) [Example 5300], the EC90 under setting [1] is < 500 nM.

As to `Cc1nc(NCC2CC3(CC3)C2)nc(N[C@@H]2C[C@H](CO)[C@@H](O)[C@H]2O)c1-c1nc2c(C3CC3)nccc2s1` [Example 5301], the EC90 under setting [1] is < 500 nM.

With `CO[C@H]1C[C@H]([C@@H](C)Nc2nc(C)c(-c3nc4c(C)nccc4s3)c(N[C@@H]3C[C@H](CO)[C@@H](O)[C@H]3O)n2)C1` [Example 5302], under setting [1], the EC90 is < 500 nM.

For `CO[C@H]1C[C@H]([C@@H](C)Nc2nc(C)c(-c3nc4c(C5CC5)nccc4s3)c(N[C@@H]3C[C@H](CO)[C@@H](O)[C@H]3O)n2)C1` [Example 5303], the EC90 under setting [1] is < 500 nM.

Consider `Cc1nc(N)nc(N[C@@H]2C[C@H](CC(C)(C)O)[C@@H](O)[C@H]2O)c1-c1nc2c(C)nccc2s1` [Example 5304], for which, under setting [1], the EC90 was < 500 nM.

Regarding `Cc1nc(NC(C)C2CC(F)(F)C2)nc(N[C@@H]2C[C@H](CO)[C@@H](O)[C@H]2O)c1-c1nc2c(C3CC3)nccc2s1` (some centres unmarked) [Example 5305], the EC90 under setting [1] was 500 to 5000 nM.

For the compound `CCO[C@H]1C[C@H](CNc2nc(C)c(-c3nc4c(C)nccc4s3)c(N[C@@H]3C[C@H](CC(C)(C)O)[C@@H](O)[C@H]3O)n2)C1` [Example 5306], the EC90 under setting [1] is < 500 nM.

Consider `COCCNc1nc(C)c(-c2nc3c(C)nccc3s2)c(N[C@@H]2C[C@H](CC(C)(C)O)[C@@H](O)[C@H]2O)n1` [Example 5307], for which, under setting [1], the EC90 was < 500 nM.

For `Cc1nc(NC(C)C2CC(F)(F)C2)nc(N[C@@H]2C[C@H](CO)[C@@H](O)[C@H]2O)c1-c1nc2c(C)nccc2s1` (some centres unmarked) [Example 5308], the EC90 (HCV Replicon assay, EC90 range, Table VI) was < 500 nM.

On to `Cc1nc(NCCSC(C)(C)C)nc(N[C@@H]2C[C@H](CC(C)(C)O)[C@@H](O)[C@H]2O)c1-c1nc2c(C)nccc2s1` [Example 5309], for which the EC90 under setting [1] was < 500 nM.

Turning to `COC[C@@H](C)Nc1nc(C)c(-c2nc3c(C)nccc3s2)c(N[C@@H]2C[C@H](CC(C)(C)O)[C@@H](O)[C@H]2O)n1` [Example 5310], the EC90 under setting [1] is < 500 nM.

Regarding `CO[C@H](C)CNc1nc(C)c(-c2nc3c(C)nccc3s2)c(N[C@@H]2C[C@H](CC(C)(C)O)[C@@H](O)[C@H]2O)n1` [Example 5311], the EC90 under setting [1] was < 500 nM.

Consider `Cc1nc(NCC2CC(F)(F)C2)nc(N[C@@H]2C[C@H](CC(C)(C)O)[C@@H](O)[C@H]2O)c1-c1nc2c(C)nccc2s1` [Example 5312], for which the EC90 under setting [1] is < 500 nM.

With `Cc1ccc([C@@H](C)Nc2nc(C)c(-c3nc4c(C)nccc4s3)c(N[C@@H]3C[C@H](CO)[C@@H](O)[C@@]3(C)O)n2)cc1` [compound 3815], the EC90 (Hepatitis C virus, 72 h, Table IV, replicon cells, day 3, real time PCR, EC90 = concentration for ΔCT=3.2 over baseline) was found to be 30 nM.
